# Source: US11753418B2, “Compounds for the modulation of Myc activity” (Syros Pharmaceuticals, Inc., priority 2015, dated 2023)
# Counter-ions that a name gives are not always drawn.
# Key:
# [1] = molecular target: T1, c-Myc/Max/Ebox DNA (Homo sapiens, UniProt P01106); test: c-Myc/Max/Ebox DNA AlphaScreen Assay; assay type: binding; conditions: free c-Myc 20 nM, his6-Max 5 nM, biotinylated Ebox oligo 10 nM, 2 hour incubation
# T1 construct: his6 (cleaved yes)
# Outline: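 Tag-free c-Myc (20 nM final) and biotinylated Ebox DNA (10 nM final) met compound first, then his6-Max was added; 2 h incubation in pH 8.0 HEPES buffer (150 mM NaCl, BSA, Tween20, glycogen, DTT), DMSO ≤2%. Ternary complex read as AlphaScreen signal between Ni-chelate acceptor and streptavidin donor beads.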
# [2] = system: human small lung cancer cell line H2171; test: Cell Viability Assay (ATPlite); assay type: cell-based; conditions: NCI-H2171, 72 h, H2171 cells, incubated for three days, ATPlite readout
# Experimental: Compounds of the invention were assayed for cell viability using the human small lung cancer cell line H2171 as described in the following protocol. Cells were counted and adjusted to 20,000 cells/mL. Using a Biotek EL406, 50 μL of cells in media were distributed into 384 well white plates from Thermo. Immediately after plating, compound in DMSO was distributed to plates. Compounds were added to plates using a 50 nL 384 well pin transfer manifold on a Janus workstation. Stocks were arrayed in 10 point dose response in DMSO stock in 384 well Greiner compound plates. After the addition of compounds, plates were incubated for three days in a 37° C. incubator. Cell viability was read out using ATPlite from Perkin Elmer. Lyophilized powder was resuspended in lysis buffer and diluted 1:2 with deionized water. 25 μL of this solution was added to each well using the Biotek liquid handler. Plates were incubated for 15 minutes at room temperature before signal was read on an Envision Plate Reader. The data from this assay are summarized in Table 3 below (H2171 activity).
# T1 sequence (P01106 whole entry): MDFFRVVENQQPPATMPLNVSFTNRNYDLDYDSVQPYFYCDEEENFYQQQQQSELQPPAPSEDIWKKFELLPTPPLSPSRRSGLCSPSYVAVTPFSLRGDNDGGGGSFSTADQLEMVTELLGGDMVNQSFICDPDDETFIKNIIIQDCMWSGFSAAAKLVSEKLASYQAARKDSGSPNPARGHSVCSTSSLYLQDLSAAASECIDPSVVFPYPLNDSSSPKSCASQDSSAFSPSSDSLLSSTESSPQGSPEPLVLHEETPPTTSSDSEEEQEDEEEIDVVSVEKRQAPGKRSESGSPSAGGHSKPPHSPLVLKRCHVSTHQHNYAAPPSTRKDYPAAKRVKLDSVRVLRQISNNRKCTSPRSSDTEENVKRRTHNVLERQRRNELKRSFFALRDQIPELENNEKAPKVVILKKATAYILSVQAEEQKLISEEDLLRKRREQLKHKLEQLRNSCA
smiles,measurement,setting,value
"CCN1Cc2sc(NC(C)=O)c(-c3nc4cnccc4s3)c2C[C@@H]1C [Compound 231, (S)—N-(6-ethyl-5-methyl-3-(thiazolo[4,5-c]pyridin-2-yl)-4,5,6,7-tetrahydrothieno[2,3-c]pyridin-2-yl)acetamide]",IC50,[1],500 to 5000 nM
same,IC50,[2],< 500 nM
"CCN1CCc2c(sc(NC(C)=O)c2-c2nc3cnccc3s2)[C@@H]1C [Compound 232, (S)—N-(6-ethyl-7-methyl-3-(thiazolo[4,5-c]pyridin-2-yl)-4,5,6,7-tetrahydrothieno[2,3-c]pyridin-2-yl)acetamide]",IC50,[1],< 500 nM
same,IC50,[2],< 500 nM
"CC[C@H](C)N(CCC(=O)Nc1sc2c(c1-c1nc3cnccc3s1)CCNC2)Cc1ccccc1 [Compound 233, (S)-3-(Benzyl(sec-butyl)amino)-N-(3-(thiazolo[4,5-c]pyridin-2-yl)-4,5,6,7-tetrahydrothieno[2,3-c]pyridin-2-yl)propanamide hydrochloride]",IC50,[1],5000 to 25000 nM
same,IC50,[2],500 to 5000 nM
"CC[C@H](C)NCCC(=O)Nc1sc2c(c1-c1nc3cnccc3s1)CCN[C@H]2C [Compound 234, 3-(((S)-sec-butyl)amino)-N—((S)-7-methyl-3-(thiazolo[4,5-c]pyridin-2-yl)-4,5,6,7-tetrahydrothieno[2,3-c]pyridin-2-yl)propanamide]",IC50,[1],< 500 nM
same,IC50,[2],< 500 nM
CC(=O)Nc1sc2c(c1-c1nc3cnccc3s1)C[C@@H](C)N[C@H]2C [Compound 237],IC50,[1],500 to 5000 nM
same,IC50,[2],500 to 5000 nM
"CC[C@H](C)NCCC(=O)Nc1sc2c(c1-c1nc3cnccc3s1)CCN(CC)C2 [Compound 238, (S)-3-(sec-butylamino)-N-(6-ethyl-3-(thiazolo[4,5-c]pyridin-2-yl)-4,5,6,7-tetrahydrothieno[2,3-c]pyridin-2-yl)propanamide]",IC50,[1],< 500 nM
same,IC50,[2],< 500 nM
"CC[C@H](C)NCCC(=O)Nc1sc2c(c1-c1nc3cnccc3s1)CCN(C(C)C)C2 [Compound 239, (S)-3-(sec-butylamino)-N-(6-isopropyl-3-(thiazolo[4,5-c]pyridin-2-yl)-4,5,6,7-tetrahydrothieno[2,3-c]pyridin-2-yl)propanamide]",IC50,[1],< 500 nM
same,IC50,[2],< 500 nM
COCCNCCC(=O)Nc1sc2c(c1-c1nc3cnc(Cl)cc3s1)CCNC2 [Compound 243],IC50,[1],< 500 nM
same,IC50,[2],< 500 nM
COCCNCCC(=O)Nc1sc2c(c1-c1nc3cnc(C)cc3s1)CCNC2 [Compound 244],IC50,[1],< 500 nM
same,IC50,[2],< 500 nM
COCCNCCC(=O)Nc1sc2c(c1-c1nc3c(C(F)F)nc(C)cc3s1)CCNC2 [Compound 245],IC50,[1],< 500 nM
same,IC50,[2],< 500 nM
"C[C@@H]1NCCc2c1sc(NC(=O)CCN[C@@H]1C[C@H]3CNC[C@H]3C1)c2-c1nc2cnccc2s1 [Compound 246, N—((S)-7-methyl-3-(thiazolo[4,5-c]pyridin-2-yl)-4,5,6,7-tetrahydrothieno[2,3-c]pyridin-2-yl)-3-(((3aR,5s,6aS)-octahydrocyclopenta[c]pyrrol-5-yl)amino)propanamide]",IC50,[1],500 to 5000 nM
same,IC50,[2],< 500 nM
"C[C@H]1Cc2c(sc(NC(=O)CCN[C@@H]3C[C@H]4CNC[C@H]4C3)c2-c2nc3cnccc3s2)CN1 [Compound 247, N—((S)-5-methyl-3-(thiazolo[4,5-c]pyridin-2-yl)-4,5,6,7-tetrahydrothieno[2,3-c]pyridin-2-yl)-3-(((3aR,5s,6aS)-octahydrocyclopenta[c]pyrrol-5-yl)amino)propanamide]",IC50,[1],5000 to 25000 nM
same,IC50,[2],< 500 nM
"C[15NH]CCC(=O)Nc1sc2c(c1-c1nc3cnccc3s1)CCNC2 [Compound 248, 3-(Methylamino)-N-(3-(thiazolo[4,5-c]pyridin-2-yl)-4,5,6,7-tetrahydrothieno[2,3-c]pyridin-2-yl)propanamide]",IC50,[1],< 500 nM
same,IC50,[2],< 500 nM
"C[C@H]1NCCc2c1sc(NC(=O)CCN[C@@H]1C[C@H]3CNC[C@H]3C1)c2-c1nc2cnccc2s1 [Compound 249, N—((R)-7-methyl-3-(thiazolo[4,5-c]pyridin-2-yl)-4,5,6,7-tetrahydrothieno[2,3-c]pyridin-2-yl)-3-(((3aR,5s,6aS)-octahydrocyclopenta[c]pyrrol-5-yl)amino)propanamide]",IC50,[1],< 500 nM
same,IC50,[2],< 500 nM
"C[C@@H]1Cc2c(sc(NC(=O)CCN[C@@H]3C[C@H]4CNC[C@H]4C3)c2-c2nc3cnccc3s2)CN1 [Compound 250, N—((R)-5-methyl-3-(thiazolo[4,5-c]pyridin-2-yl)-4,5,6,7-tetrahydrothieno[2,3-c]pyridin-2-yl)-3-(((3aR,5s,6aS)-octahydrocyclopenta[c]pyrrol-5-yl)amino)propanamide]",IC50,[1],500 to 5000 nM
same,IC50,[2],< 500 nM
"CCC(C)NCCC(=O)[15NH]c1sc2c(c1-c1nc3cnccc3s1)CCNC2 (centres unmarked) [Compound 251, 3-(sec-Butylamino)-N-(3-(thiazolo[4,5-c]pyridin-2-yl)-4,5,6,7-tetrahydrothieno[2,3-c]pyridin-2-yl)propan-^15N-amide]",IC50,[1],< 500 nM
same,IC50,[2],< 500 nM
